Assay results published in a melting point compilation (Tetko et al.).

| SMILES | melting point |
| --- | --- |
| O=C1/C(=N\O)C(c2ccc([N+](=O)[O-])cc2)=NN1c1ccccc1 | 222 to 224 °C |
| CSc1nc2ccc([N+](=O)[O-])cc2s1 | 134 to 136 °C |
| CC(C)c1nsc(N)n1 | 119 to 120 °C |
| Cc1ccc[nH]1 | -35.6 °C |
| Clc1ccc(CSSCc2ccc(Cl)cc2)cc1 | 59 to 61 °C |
| Nc1ccc(Cl)c(Cl)c1 | 72 °C |
| CC(C)(c1cc(Br)c(OCCO)c(Br)c1)c1cc(Br)c(OCCO)c(Br)c1 | 108 to 114 °C |
| CN(c1c(F)c(F)c(-c2c(F)c(F)c(F)c(F)c2F)c(F)c1F)N(O)O | 140 °C |
| Cc1c(N/N=C(/C#N)c2nc(-c3ccccc3)cs2)c(=O)n(-c2ccccc2)n1C | 226 °C |
| S=C=NC(c1ccccc1)(c1ccccc1)c1ccccc1 | 138 to 140 °C |
| Nc1nc(S)nc(S)n1 | 300 °C |
| CC(O)CN(CCO)CCO (stereo not given) | 31.5 to 36 °C |
| O=C(N=C=S)c1cccc([N+](=O)[O-])c1 | 93 to 95 °C |
| Oc1c(I)cc(I)c2cccnc12 | 210 °C |
| N#Cc1ccc(C=Cc2ccccc2C=NNc2ccccc2)c([N+](=O)[O-])c1 | 182 °C |
| CNC(=O)CSP(=O)(OC)OC | -28 °C |
| Cc1cc(Cl)ncc1N | 69 to 73 °C |
| O=C1c2ccccc2CC2C=Cc3ccccc3N12 (stereo not given) | 91 °C |
| Nc1nc(O)cc(Cl)n1 | 262 °C |
| Nc1nn2c(-c3ccccc3)cc(=O)[nH]c2c1/N=N/c1ccccc1 | 265 °C |
| C=CC(C)(C)C(=O)O | -6 °C |
| NC(COc1ccccc1)=NO | 93 to 94 °C |

| SMILES | melting point |
| --- | --- |
| N#Cc1cccc(N2CCCC2)n1 | 73 to 74 °C |
| O=C(Nc1cccnc1Cl)c1ccccc1Cl | 115 to 117 °C |
| OC1c2ccccc2C=Cc2ccccc21 | 126 °C |
| C=CCc1cc(OC)c(OC)c(OC)c1OC | 25 °C |
| O=C(c1cc2ccccc2o1)c1cc2ccccc2o1 | 174 to 175 °C |
| CCOC(=O)CCN(Cc1ccccc1)SN(C)C(=O)ON=C(C)SC | 47 °C |
| Cc1c(N=C=O)cnn1-c1ccccc1 | 56 to 60 °C |
| Nc1ncccc1Cl | 61 °C |
| COc1ccc(/N=N/c2sc(/C(C#N)=N/Nc3ccc(F)cc3)nc2C)cc1 | 214 °C |
| CC(=O)OC1CCC2C3CCC4CC5(CCC4(C)C3CCC12C)OCCO5 (stereo not given) | 144 °C |
| CC12COC(=O)CC1CCC1C2CCC2(C)C1CCC2(C)O (stereo not given) | 236 °C |
| O=C(c1ccccc1)c1c(-c2ccccc2)n(C(=O)c2ccccc2)c2cc([N+](=O)[O-])ccc12 | 204 °C |
| Cc1ccc2c(CCl)c(C)ccc2c1CCl | 228 °C |
| O=[N+]([O-])c1ccc(Nc2ccc(O)cc2)c([N+](=O)[O-])c1 | 194 °C |
| CC1CCCC(O)C1 (stereo not given) | -5.5 °C |
| Fc1cc(F)c(F)c(F)c1 | -48 °C |
| O=C(O)CN1CCOCCOCCN(CC(=O)O)CCOCCOCC1 | 173 to 175 °C |
| CC12CCCCC1(C)C1CCC3(C)C(O)CCC3(C)C1CC2 (stereo not given) | 167 °C |
| OC(C1=CC(=C(c2ccccn2)c2ccccn2)C=C1)(c1ccccn1)c1ccccn1 | 146 °C |
| CCC(CO)(CO)CO | 60 °C |
| CSc1nc2cc(NCc3ccccc3Cl)ccc2[nH]1 | 207 to 209 °C |
| NC(Cc1cc(I)c(Oc2ccc(O)c(I)c2)c(I)c1)C(=O)O (stereo not given) | 236 °C |

| SMILES | melting point |
| --- | --- |
| Cc1c(C#N)cccc1C#N | 136 °C |
| Cc1ccc2cc(CBr)ccc2n1 | 93 to 94 °C |
| Nc1ccc(CO)cc1 | 61 °C |
| Cn1nc(C(F)(F)F)c(C=O)c1Cl | 41 to 42 °C |
| NNC(=S)Nc1ccc(Cl)cc1Cl | 169 °C |
| C/C(=C\C(=O)c1ccc(F)cc1)c1ccc(F)cc1 | 51 °C |
| CC(OC/C(=N\NC(N)=O)c1ccccc1)=C(C#N)c1ccccc1 | 156 to 158 °C |
| Nc1c([N+](=O)[O-])sc2ccccc12 | 220 to 221 °C |
| CCCN(CCC)C(=O)Cc1c(-c2ccc(Cl)cc2)nc2ccc(Cl)cn12 | 140 °C |
| CCS(=O)(=O)C(C)(C)S(=O)(=O)CC | 126 °C |
| O=[N+]([O-])c1cccc(NN=Cc2ccccc2)c1 | 196 °C |
| CCCCCCC#CC(=O)O | -8 °C |
| S=C1NCCN1 | 203 °C |
| O=C(Cl)c1cccc2c1OCCCO2 | 36 to 38 °C |
| O=C(O)C(C(=O)O)c1ccsc1 | 139 °C |
| CC/C(=C(/CC)c1ccc(O)cc1)c1ccc(O)cc1 | 172 °C |
| Nc1cccc(-c2cnco2)c1 | 92 to 95 °C |
| CO[C@](C(=O)O)(c1ccccc1)C(F)(F)F | 44 °C |
| O=C1/C(=N\Nc2ccc(Br)cc2)C(C(F)(F)F)=NN1c1ccccc1 | 175 °C |
| CC(C)(C)OC(=O)NCC(N)=S | 129 to 131 °C |
| c1ccc2c(c1)cc1ccc3cc4ccccc4c4ccc2c1c34 | 282 °C |
| O=C(O)C=Cc1ccc(OC(F)(F)F)cc1 | 178 to 179 °C |

| SMILES | melting point |
| --- | --- |
| CCCCCCCOc1ccc(-c2ccc(C#N)cc2)cc1 | 54 °C |
| Cc1nsc(-c2ccc(Cl)cc2)n1 | 81 to 83 °C |
| N#CC1(c2ccccc2)CCC(=O)CC1 | 115 °C |
| O=[N+]([O-])c1ccccc1OCCCBr | 37 to 38 °C |
| Clc1ncnc2sc3c(c12)CCCC3 | 96 °C |
| CCCCCCCCCCCCCCCCCCCCCCCCCCCCCC(=O)O | 93.6 °C |
| Cc1cc(C(F)(F)F)n2nc(N)c(/N=N/c3ccc(Cl)cc3)c2n1 | 250 °C |
| CNC(=O)Oc1cc(C(C)(C)C)cc(C(C)(C)C)c1 | 103 °C |
| OCc1ccc(-c2ccsc2)cc1 | 152 to 154 °C |
| Brc1ccc2[nH]ccc2c1 | 91 °C |
| O=[N+]([O-])c1cc(C(F)(F)F)ccc1CCl | 44 °C |
| S=c1oc2ccccc2n1CSCCCS | 188 °C |
| Nc1cc2ccccc2cc1N | 199 °C |
| CC1(C)C(C=NO)=[N+]([O-])C(C)(C)N1O | 157 to 159 °C |
| N[C@@H](Cc1ccccc1)C(=O)O | 270 to 275 °C |
| CC12CCC(O)CC1CCC1C2CC(O)C2(C)C(C3=CC(=O)OC3)CCC12O (stereo not given) | 222 °C |
| O=C(O)c1nsc(Cl)c1Cl | 169 °C |
| CC(=O)Nc1ccccc1/C=C\c1ccccc1 | 115 to 117 °C |
| Nc1cn[nH]c1 | 81 °C |
| CC(=O)c1ccc(NC(=O)C(F)(F)C(F)(F)C(F)(F)C(F)(F)C(F)(F)C(F)(F)C(F)(F)C(F)(F)F)cc1 | 155 °C |
| NC(=O)c1cc(Cl)ccc1N | 171 °C |

The next lines start with the values.

| melting point | SMILES |
| --- | --- |
| 171 to 175 °C | CC1(C)OC(=O)C(=C2CCCN2)C(=O)O1 |
| 226 to 228 °C | CCOc1ccc(-c2nnc3n2NC(C=Cc2ccccc2)S3)cc1 (stereo not given) |
| 172 to 175 °C | CCC1C(=O)CCC1=O |
| -64.8 °C | CC=CC(C)C(C)C=CC (stereo not given) |
| 123 to 125 °C | O=C(NCNN(CNC(=O)c1ccccc1)CNC(=O)c1ccccc1)c1ccccc1 |
| 152 to 154 °C | CCCCCCCCOc1ccc(NC(=O)c2ccc(OC)cc2)cc1 |
| 192 °C | CCOC(=O)c1cc2c(=O)oc3ccccc3c2nc1N |
| 93 to 94 °C | CCCC(=O)c1cc2ccccc2oc1=O |
| 150 °C | CC(=O)C12OC(C)(c3ccccc3)OC1CC1C3CCC4=CC(=O)CCC4(C)C3CCC12C (stereo not given) |
| 77 to 79 °C | COC1=C(OC)C(C(COS(C)(=O)=O)OS(C)(=O)=O)OC1=O (stereo not given) |
| 76 to 77 °C | Cc1ncc(C=O)n1C |
| 72 to 78 °C | O=C(NCC[C@H](O)C(=O)O)OCc1ccccc1 |
| -6 °C | CCc1ccccc1-c1ccccc1 |
| 170 °C | Cc1ccc(C(=O)c2noc(-c3ccc([N+](=O)[O-])cc3)c2S(=O)(=O)c2ccccc2)cc1 |
| 96 °C | CN(O)C(=O)Cc1ccc(OCc2ccccc2)cc1 |
| 222 °C | CC(C)CCCC(C)C1CCC2C3CC(=O)C4(O)CC(=O)CCC4(C)C3CCC12C (stereo not given) |
| 92 to 95 °C | CCOC(=O)CC[C@H](NC(=O)c1ccc([N+](=O)[O-])cc1)C(=O)OCC |
| -60 °C | CC(C)(C)c1ccccc1N |
| 244 to 245 °C | O=C(O)c1ccccc1N=NC1SC(=S)NC1=O (stereo not given) |

| melting point | SMILES |
| --- | --- |
| 44 °C | Cc1ccc([N+](=O)[O-])cc1S(=O)(=O)Cl |
| 181 °C | Cc1c(NC(=O)C(C)N(C)C)c(=O)n(-c2ccccc2)n1C (stereo not given) |
| 54 °C | CC(=O)CCc1oc2ccccc2c1-c1ccc(C)o1 |
| 86 °C | C[Si](C)(C)Nc1ncnc2c1ncn2[Si](C)(C)C |
| 112 °C | CCOC(=O)CCCOc1ccccc1NC(=O)c1ccc2c(c1)CC1(CCC(c3ccc(C(C)(C)C)cc3)CC1)C2 (stereo not given) |
| 96 °C | COC(=O)Cn1ccnc1[N+](=O)[O-] |
| 27 to 28 °C | COC(=O)/C(=C/c1ccccc1)Cc1ccccc1 |
| 143 °C | COC(=O)CC1Sc2ccccc2NC1=O (stereo not given) |
| 62 to 65 °C | CC(C)[Si](C(C)C)(C(C)C)n1ccc2c(Br)cccc21 |
| 120 to 121 °C | COC(=O)c1cccc([N+](=O)[O-])c1NC(C)=O |
| 166 to 168 °C | CCCOC(=O)C1=C(C)NC(C)=C(C(=O)OCCC)C1c1cccc(OC)c1O |
| 174 to 175 °C | CCOC(=O)C1=C(C)NC(=S)NC1c1ccco1 (stereo not given) |
| 208 °C | Cc1nnc(NS(=O)(=O)c2ccc(N)cc2)s1 |
| 15 °C | CC(C)C(C)(C)[Si](C)(C)Cl |
| 292 °C | CC1(C(=O)O)CCC2(C)CCC3(C)C(=CC(=O)C4C5(C)CCC(OC(=O)CCC(=O)O)C(C)(C)C5CCC43C)C2C1 (stereo not given) |
| 85 °C | COC(=O)c1ccc([N+](=O)[O-])c(OC)c1 |
| 160 °C | CCOc1ccc([C@]2(C(=O)N3CCC[C@H](C)[C@@H]3C)CC2(Cl)Cl)cc1 |
| 175 to 176 °C | CC(C)(C)OC(=O)C(C)(C)Sc1nnc(N)s1 |
| 184 to 186 °C | CC(C)(C)S(=O)(=O)CC(N)=S |
